Test system: C57/BL6 WT mice subjected to TAC pressure overload
Assay: In vivo hemodynamics, PV loop analysis, in TAC mice
Design: species or system mouse
Details: TAC 3 weeks
Description: Male NOS3 null mice (NOS3^−/−) and C57/BL6 WT controls (8-11 weeks, Jackson Labs, Bar Harbor, Me., USA) were used. Pressure overload was produced by transverse aorta constriction (TAC). Briefly, The aortic arch was isolated by entering the extrapleural space between the second and third rib, and afterwards the transverse aorta was isolated between the right and left carotid arteries. A 7-0 prolene suture ligature was tied around the transverse aorta against a 27-gauge needle to produce a 65-70% constriction after the removal of the needle. After closing the chest, animals were extubated, and a subcutaneous injection of morphine sulphate 0.2 mg, was administered before they returned to their cages. Animal's ventilatory and circulatory status was checked every 30 minutes during the first 2 hours. Sham-operated mice underwent the same operation except for aortic constriction. […] Animals were randomized to receive placebo or BH4 (120 mg/kg/d) for the next 5 weeks. At the end of the study, i.e. at 9 weeks, animal were sacrificed to receive tissue or underwent in vivo PV-loop analysis. […] Control mice were subject to sham operations, and animals were studied 3-9 weeks following surgery. An additional group of wild-type animals were subjected to TAC for 3 weeks while co-treated with oral tetrahydrobiopterin (BH4) (Sigma-Aldrich) (1 mg/g food) mixed in their rodent chow, providing 5 mg/day based on 4-6 g daily diet^8.
Two different BH4 treatment protocols are used. For experiments related to FIGS. 1-7, where prevention of cardiac indications is described BH4 is provided orally as a treatment starting 2 days after TAC surgery (once mice are again eating oral diet). For those figures related to treatment of established cardiac indications, FIGS. 8-23, BH4 is provided orally but this is delayed for 4 weeks to establish substantial cardiac hypertrophy, remodeling, and NOS-uncoupling. Then the treatment is provided for the remaining 5 week period.
In vivo left ventricular (LV) function was assessed by pressure-volume catheter^12,13. Mice were anesthetized with 1-2% isoflurane, urethane ([…], i.p.), etomidate (5-10 mg/kg, i.p.), and morphine (1-2 mg/kg, i.p.), underwent tracheostomy, and were ventilated with 6-7 μL/g tidal volume and 130 breaths/min. Volume expansion (12.5% human albumin, 50-100 μL over 5 min) was provided through a 30 G cannula via the right external jugular vein. The left ventricular apex was exposed through an incision between the 7-8th rib, and a catheter, specifically a 1.4 Fr PV catheter (SPR 839, Millar Instruments, Inc.), was advanced through the apex to lie along the longitudinal axis. Absolute volume was calibrated, and pressure-volume data was measured at steady state and during transient reduction of venous return as reported^13

[1] = oral co-treatment 1 mg/g food, mean ± sem

Compound: Nc1nc2c(c(=O)[nH]1)NC(C(O)C(O)CO)CN2 (stereo not drawn) [H4N, tetrahydroneopterin]
- functional or remodeling response to TAC (oral co-treatment): no effect
- Arterial Elastance [1]: 11.4 ± 0.7 mmHg/μL
- Ejection Fraction [1]: 43.4 ± 9.8%
- End-diastolic Volume [1]: 38.8 ± 8.0 µL
- End-systolic Elastance [1]: 41.0 ± 9.3 mmHg/μL · g
- End-systolic Volume [1]: 24.0 ± 7.6 µL
- Heart RateR [1]: 501.2 ± 28.5 min⁻¹
- LV Systolic Pressure [1]: 177.8 ± 4.6 mmHg
- Peak Power Index [1]: 31.8 ± 5.8 mmHg/s
- Tau [1]: 5.5 ± 0.36 ms
- dPdtmn [1]: −10725 ± 971.0 mmHg/s
- dPdtmx [1]: 11154 ± 520 mmHg/s
